Experimental data from ChEMBL document CHEMBL3885861, “Open TG-GATES”.

Species on record: Rattus norvegicus
Assay: Open TG-GATES - Regimen: Single
Type: toxicity, organism-based, Sprague-Dawley
Set-up: regimen Single, gender Male, age 6 weeks
Settings: in vivo, po, 100 mg/kg, route gavage, dose level Low; for APTT / Bas / Eos / Fbg / Hb / Ht / Lym / MCH / MCHC / MCV / Mono / Neu / PT / Plat / RBC / Ret / WBC: tissue Blood; for KIDNEY_L / KIDNEY_R / KIDNEY_TOTAL: tissue Kidney; for LIVER: tissue Liver; for A/G / ALP / ALT / AST / BUN / CRE / Ca / Cl / DBIL / GLC / IP / K / LDH / Na / PL / RALB / TBIL / TC / TG / TP / gamma-GTP: tissue Plasma

## O=C(O)c1cc(/N=N/c2ccc(S(=O)(=O)Nc3ccccn3)cc2)ccc1O [SULFASALAZINE]
3 h
  TERMINAL_BW: 211 g
  APTT: 19.2 s
  Bas: 0%
  Eos: 1%
  Fbg: 216.6 mg/dL
  Hb: 13 g/dL
  Ht: 38.4%
  Lym: 77.2%
  MCH: 21.5 pg
  MCHC: 33.9%
  MCV: 63.4 fL
  Mono: 2.4%
  Neu: 18.6%
  PT: 12.5 s
  Plat: 129.8 x10_4/uL
  RBC: 605.4 x10_4/ul
  Ret: 7.1%
  WBC: 92.9 x10_2/uL
  KIDNEY_L: 1 g
  KIDNEY_R: 0.9 g
  KIDNEY_TOTAL: 1.9 g
  LIVER: 10.2 g
  A/G: 1.6
  ALP: 984.8 IU/L
  ALT: 37.4 IU/L
  AST: 69.4 IU/L
  BUN: 11 mg/dL
  CRE: 0.4 mg/dL
  Ca: 10.6 mg/dL
  Cl: 102.2 meq/L
  DBIL: 0.068 mg/dL
  GLC: 201.8 mg/dL
  IP: 9.5 mg/dL
  K: 3.7 meq/L
  LDH: 166.6 IU/L
  Na: 140.8 meq/L
  PL: 148 mg/dL
  RALB: 3.3 g/dL
  TBIL: 0.1 mg/dL
  TC: 80 mg/dL
  TG: 59.4 mg/dL
  TP: 5.4 g/dL
  gamma-GTP: 1.2 IU/L
6 h
  TERMINAL_BW: 210.8 g
  APTT: 19 s
  Bas: 0%
  Eos: 1%
  Fbg: 218.6 mg/dL
  Hb: 13.2 g/dL
  Ht: 38.5%
  Lym: 73.6%
  MCH: 21.9 pg
  MCHC: 34.3%
  MCV: 63.9 fL
  Mono: 3%
  Neu: 21.2%
  PT: 12.7 s
  Plat: 111 x10_4/uL
  RBC: 603.2 x10_4/ul
  Ret: 7.2%
  WBC: 89.7 x10_2/uL
  KIDNEY_L: 1 g
  KIDNEY_R: 1 g
  KIDNEY_TOTAL: 2 g
  LIVER: 9.7 g
  A/G: 1.6
  ALP: 986.4 IU/L
  ALT: 35.8 IU/L
  AST: 68.4 IU/L
  BUN: 10.2 mg/dL
  CRE: 0.4 mg/dL
  Ca: 10.6 mg/dL
  Cl: 101.8 meq/L
  DBIL: 0.066 mg/dL
  GLC: 193.6 mg/dL
  IP: 9.7 mg/dL
  K: 3.9 meq/L
  LDH: 198.6 IU/L
  Na: 140.2 meq/L
  PL: 148 mg/dL
  RALB: 3.3 g/dL
  TBIL: 0.1 mg/dL
  TC: 76.6 mg/dL
  TG: 61.2 mg/dL
  TP: 5.4 g/dL
  gamma-GTP: 1.6 IU/L
9 h
  TERMINAL_BW: 204.7 g
  APTT: 19.3 s
  Bas: 0%
  Eos: 1%
  Fbg: 225.8 mg/dL
  Hb: 13.2 g/dL
  Ht: 38.8%
  Lym: 82.4%
  MCH: 21.4 pg
  MCHC: 34%
  MCV: 63 fL
  Mono: 3.4%
  Neu: 12.4%
  PT: 12.8 s
  Plat: 113 x10_4/uL
  RBC: 616.6 x10_4/ul
  Ret: 6.7%
  WBC: 76.6 x10_2/uL
  KIDNEY_L: 1 g
  KIDNEY_R: 1 g
  KIDNEY_TOTAL: 2 g
  LIVER: 8.7 g
  A/G: 1.6
  ALP: 932.8 IU/L
  ALT: 35.4 IU/L
  AST: 63.8 IU/L
  BUN: 9.4 mg/dL
  CRE: 0.3 mg/dL
  Ca: 10.6 mg/dL
  Cl: 102.2 meq/L
  DBIL: 0.068 mg/dL
  GLC: 194.2 mg/dL
  IP: 10.2 mg/dL
  K: 3.8 meq/L
  LDH: 198.8 IU/L
  Na: 139.8 meq/L
  PL: 145.4 mg/dL
  RALB: 3.3 g/dL
  TBIL: 0.1 mg/dL
  TC: 83 mg/dL
  TG: 41.6 mg/dL
  TP: 5.5 g/dL
  gamma-GTP: 1.2 IU/L
24 h
  TERMINAL_BW: 221.5 g
  APTT: 17.9 s
  Bas: 0%
  Eos: 1%
  Fbg: 234.6 mg/dL
  Hb: 13.2 g/dL
  Ht: 38.5%
  Lym: 81%
  MCH: 21.2 pg
  MCHC: 34.4%
  MCV: 61.8 fL
  Mono: 2.8%
  Neu: 13.8%
  PT: 12.5 s
  Plat: 123 x10_4/uL
  RBC: 624 x10_4/ul
  Ret: 6.3%
  WBC: 86.3 x10_2/uL
  KIDNEY_L: 1 g
  KIDNEY_R: 1 g
  KIDNEY_TOTAL: 2 g
  LIVER: 10.5 g
  A/G: 1.6
  ALP: 1020.4 IU/L
  ALT: 40.4 IU/L
  AST: 64.6 IU/L
  BUN: 15.2 mg/dL
  CRE: 0.4 mg/dL
  Ca: 10.8 mg/dL
  Cl: 101.4 meq/L
  DBIL: 0.092 mg/dL
  GLC: 184 mg/dL
  IP: 7.7 mg/dL
  K: 4.1 meq/L
  LDH: 213 IU/L
  Na: 139.8 meq/L
  PL: 158.2 mg/dL
  RALB: 3.5 g/dL
  TBIL: 0.1 mg/dL
  TC: 79.6 mg/dL
  TG: 88.8 mg/dL
  TP: 5.7 g/dL
  gamma-GTP: 1.6 IU/L
